Blank lines part the entries; values can stand above or below the compound they belong to.
Assays:
[1] = L-DOPA anti-oxidation in hydrogels (visual colour); type: physicochemical; settings: 3 mg L-DOPA, MES pH 6 or PBS pH 7.4, 12 h at 37° C.
Description: 200 μL of 25 w/v % (DS 0.5) SNP-CHO or SNP-APBA was combined with 200 μL of CMCh (pH 7) to form a 400 μL bulk hydrogel in a 12 plate well. Gels were loaded with 3 mg of L-DOPA by suspending the powered drug into the aqueous SNP precursor before gelling. The gels were submerged in 3 mL of 0.1M MES (pH 6) buffer or 10 mM PBS (pH 7.4) buffer. Oxidation of L-DOPA was assessed visually, with the formation of dark yellow-brown and black precipitates indicating L-DOPA oxidation to its dopaquinone and dopachrome polymer forms, and assessed with respect to controls of L-DOPA at the same concentration in each of the respective buffers (without a hydrogel).

C. elegans = assay: 6-OHDA Parkinsonian model, electrotaxis movement testing; type: in vivo; settings: L-DOPA free or loaded in 25 w/v % hydrogels (DS=0.5)
Description: The stability of L-DOPA delivered using the SNP-CHO@CMCh or SNP-APBA@CMCh bulk hydrogels was assessed using an in vivo C. elegans assay. Wild-type late larval stage worms were exposed to 30 mM 6-OHDA in ascorbic acid for 1 hr to induce dopaminergic neurodegeneration. After 24 hours, worms were added to a 12-well plate in which each well contains 400 μL of SNP-CHO@CMCh or SNP-APBA@CMCh bulk hydrogel as well as E. coli (for food) to form a 3 mL liquid culture in which worms are continuously exposed to released L-DOPA.
Worms were sampled at various time points (0 h, 4 h, 8 h, 12 h, 24 h, 48 h) to assess movement. Motility changes, assessed based on the average speed of the worms in mm/s (minimum n=20 worms per sample and time point tested), were measured using an in-house voltage-induced electrotaxis microfluidic assay developed to quantify drug induced dopaminergic neuron signal-mediated movement. In addition to the test sample (Group 1), control groups of no 6-OHDA, no hydrogel (Group 2, untreated control), 6-OHDA, no hydrogel (Group 3, drug control); 6-OHDA, blank hydrogel (Group 4, material control); and 6-OHDA, drug(s) without hydrogel (Group 5, delivery vehicle control) were assessed (minimum n=20 worms/group). L-DOPA was loaded in both SNP-CHO@CMCh and SNP-APBA@CMCh 25 w/v % hydrogels (DS=0.5) at 3 or 9 […].

[2] = system: Sprague-Dawley rats, MK-801 model of schizophrenia; assay: MK-801 schizophrenia model, social interaction behavioral testing; type: in vivo, rat
Description: Age-matched male Sprague-Dawley rats (250-300 g, Charles River Canada, St. Constant, QC, Canada) received care that complied with protocols approved by the Animal Research Ethics Board at McMaster University and the guidelines of the Canadian Council on Animal Care. Animals were housed individually in standard cages on a reverse 12 h light cycle. Upon arrival, animals were habituated to their holding room for 1 week, followed by a week of handling (touching and petting for at least 5 minutes each, every other day) prior to any testing. Animals were handled regularly throughout the duration of all experimentation (2-3 times per week outside of experiments) and housed in a room maintained at 22° C. with 50% humidity and access to food and water ad libitum. The animal masses at the end of the experiments were between 400-550 g.
For the in situ animal injections, all drugs were dissolved in artificial cerebrospinal fluid (aCSF) solution formulated in-lab comprised of 120 mM NaCl, 4.8 mM KCl, 1.2 mM KH2PO4, 1.2 mM MgSO4, 25 mM NaHCO3, 2.5 mM CaCl2), and 10 mM D-glucose. Further, PAOPA (with or without hydrogel formulation) was administered at concentration of 0.5 mg/kg intranasally, selected based on effective concentrations observed via dose-dependent intraperitoneal (IP) administrations. The PAOPA was added equally to both the CMCh and the SNP solutions and allowed to sit for 24 h to allow for any polymer-drug interactions to occur before gelation. All precursor solutions were passed through a 0.45 µm filter (VWR) to sterilize them prior to injection into a live animal. […]
To administer the payload for the five experimental groups, a single rat was removed from its cage and placed into a closed anesthesia box with transparent sides for proper observation. Aerosolized isoflurane (with oxygen) was passed into the box until the rat was determined to be anesthetized via foot pinching reflex test. […]
Rats were assessed for social interaction with and without MK-801 and drug/formulation administration. […]

[3] = system: Sprague-Dawley rats, MK-801 model of schizophrenia; settings: PAOPA 1 mg/kg IP, literature; cited from earlier work
B16-F10 melanoma tumor = assay: In vivo anti-tumor test (relative tumor volume); parameters: species or system C57BL/6 mice; settings: 5.0 mg/kg DOX tail vein every three days, 10-day period
Description: (§1) The antitumor effect of DOX, DOX-Clusters (control), and Dox-iClusters was evaluated by tracking the relative tumor volume (V/V0) after treatment with the nanocluster nanogels. C57BL/6 mice were injected intradermally with B16-F10 melanoma tumor cells, allowing the tumors to grow to ˜20 mm^3 by day 7 after the injections. The mice were treated by tail vein injection of 200 μL of PBS, DOX, DOX-iCluster and DOX-Cluster every three days (5.0 mg/kg of DOX for all formulations), after which both the tumor size and body weight were monitored regularly over a 10-day period.

[4] = Body weight in the in vivo anti-tumor test; parameters: species or system C57BL/6 mice; settings: 5.0 mg/kg DOX tail vein every three days, ten days
Description: as §1

L-DOPA oxidation (colour) [1]: became black with oxidation
SMILES: N[C@@H](Cc1ccc(O)c(O)c1)C(=O)O [L-DOPA, 3,4-dihydroxy-L-phenylalanine]
duration of improved swimming speed / motility vs 6-OHDA control (C. elegans): 4 h

SMILES: NC(=O)CN1CC[C@@H](NC(=O)[C@@H]2CCCN2)C1=O [PAOPA]
social interaction deficits ([2]; 0.5 mg/kg IN 30 minutes before MK-801, assessed 30 minutes post-MK-801): expected attenuation of social interaction deficits | social interaction deficits ([2]; 0.5 mg/kg IN, MK-801 challenge 24 hours later): the benefits of PAOPA were no longer observed | total social interaction time relative to untreated control ([2]; no MK-801, intranasal, PAOPA 0.5 mg/kg or unloaded hydrogel): neither increased nor decreased total interaction times | social interaction time [3]: did not affect social interaction time

SMILES: COc1cccc2c1C(=O)c1c(O)c3c(c(O)c1C2=O)C[C@@](O)(C(=O)CO)C[C@@H]3O[C@H]1C[C@H](N)[C@H](O)[C@H](C)O1.Cl [free DOX, doxorubicin hydrochloride]
relative tumor volume (V/V0) (B16-F10 melanoma tumor): 24 × volume increase | body weight [4]: significantly reduced body weight

Reference: patent US20210361570A1, “IN SITU GELLING POLYSACCHARIDE-BASED NANOPARTICLE HYDROGEL COMPOSITIONS, AND METHODS OF USE THEREOF” (McMaster University, priority 2020, published 2021)
